Patent US8252832B2, “Kinesin inhibitors as cancer therapeutics” (Novartis AG, priority 2007, dated 2012)

Legend:
Assay type in all cases: cell-based
[1] = system: HT29; assay: CTG (CellTiter-Glo) screening assay; details: Homo sapiens, HT-29
From the text: (§1) Identification of tumor types that are the most sensitive to the KSP inhibitors of the present invention can be accomplished using an unbiased approach that uses several cell-based assays. The assays chosen were as follows: • CellTiter-Glo®. This is an assay designed to measure ATP concentration in a cell culture, and can be correlated to cell number. Briefly CellTiter-Glo® (Promega Corporation) is a homogeneous method using the single CellTiter-Glo® reagent to detect ATP wherein ATP in the assay drives the activity of a thermostable luciferase to create a luminescent signal which can then be measured and correlated with the number of viable cells. Briefly, for adherent cells, 1,000 to 5,000 cells/well were plated in 96-well plates (100 μl/well) and let to adhere for 24 hours before being treated with drug. For non-adherent cells, 1,000 to 10,000 cells/well were plated in 96-well plates (100 μl/well) and immediately treated with drug. Drug dilutions were prepared in DMSO at 1000 times the final concentration. These dilutions were then diluted 1/100 in growth media before being added to the cells (11 μl/well) to achieve the desired final concentration. After 48 h in a 37° C. tissue culture incubator, the plates were processed for the CellTiter-Glo®assay according to the manufacturer's instructions. Protocol for a 72 hour cell proliferation assay: The 72 hour assay was performed the same way as the 48 hour assay except for the following modifications: For adherent cells, 500 to 5,000 cells/well were plated in 96-well plates (90 μl/well cell growth media) and left to adhere for 24 hours before being treated with drug. For non-adherent cells, 1,000 to 10,000 cells/well were plated in 96-well plates (90 μl/well cell growth media) and immediately treated with drug. Data values presented represent the concentration of test compound required for a 50% reduction in growth. • LDH release. The Cytotoxicity Detection KitPLUS (LDH) assay (Roche Diagnostics, Manheim, Germany) measures the amount of LDH released in the media by dying cells; LDH catalyzes the conversion of lactate into pyruvate. The enzymatic reaction is coupled to a chemical reaction that uses a tetrazolium salt to form a formazan that is red and can be detected by its absorbance at 490 nm. This assay measures the amount of cell death after drug treatment. Cells were plated at 10,000 cells/well in 96-well plates (100 μl/well). Adherent cells were let to adhere for 24 hours before being treated with drug, whereas non-adherent cells were immediately treated with drug. Drug dilutions were prepared in DMSO at 1000 times the final concentration. These dilutions were then diluted 1/100 in growth media before being added to the cells (11 μl/well) to achieve the desired final concentration. After 48 h in a 37° C. tissue culture incubator, the plates were processed for the Cytotoxicity Detection KitPLUS (LDH) assay according to the manufacturer's instructions. The media only values were subtracted from all the data points before analysis. Data values presented correspond to the compound concentration wherein LDH output is at half maximal level. • Caspase-Glo® 3/7. The Caspase-Glo® 3/7 Assay (Promega Corporation) is a homogeneous luminescent assay that measures caspase-3/7 activities. The assay provides a proluminescent caspase-3/7 DEVD-aminoluciferin substrate and a thermostable luciferase in a reagent optimized for caspase-3/7 activity, luciferase activity and cell lysis. Adding the single Caspase-Glo® 3/7 Reagent results in cell lysis, followed by caspase cleavage of the substrate. This liberates free aminoluciferin, which is consumed by the luciferase, generating a luminescent signal. The signal is proportional to caspase-3/7 activity. Data values presented correspond to the compound concentration wherein caspase 3/7 activity is at half maximal level.

[2] = system: T47-D; assay: CTG (CellTiter-Glo) screening assay; details: Homo sapiens, T47D
From the text: as §1

[3] = system: MV4; 11; assay: CTG (CellTiter-Glo) screening assay; details: Homo sapiens
From the text: as §1

[4] = system: Colo-205; assay: CTG (CellTiter-Glo) screening assay; details: Homo sapiens
From the text: as §1

[5] = system: HCT-15; assay: CellTiter-Glo proliferation, 72 hours; details: Homo sapiens; Colon, HCT-15, 72 hours
From the text: (§2) Cell lines used were as follows: HCT-116 (National Cancer Institute's DCTF Tumor Repository, catalog #NCI-502568, Rockville, Md.), HCT-15 (National Cancer Institute's DCTF Tumor Repository, catalog#NCI-502711, Rockville, Md. available from American Type Tissue Collection, catalog #CLL-225), KB-3-1 (available from DSMZ, Deutsche Sammlung von Mikroorganismen und Zellkulturen GmbH (German Collection of Microorganisms and Cell Cultures—catalog number ACC 158), KB-V1 (available from DSMZ—catalog number ACC 149), AGS (available from American Type Culture Collection, Manassas Va., catalog number CRL-1739™), N87 (available from American Type Culture Collection, Manassas Va., catalog number CRL-5822), Hel92.1.7 (available from American Type Culture Collection, Manassas Va., catalog number TIB 180), K562 (available from American Type Culture Collection, Manassas Va., catalog number CRL-243™), MV4; 11 (American Tissue Culture Collection, Manassas Va., catalog number CRL-9591) and U937 (available from American Type Culture Collection, Manassas Va., catalog number CRL-1593.2).
(§3) Cells were plated in 96-well plates at densities of about 500 cells per well of a 96-well plate and allowed to grow for 24 hours. The cells were then treated with various concentrations of compounds for 72 hours. Then, 100 μl of CellTiter-Glo® reagent was added (Promega Corporation). CellTiter-Glo® is used in a homogeneous method of determining the number of viable cells using the single CellTiter-Glo® reagent to detect ATP (U.S. Pat. Nos. 6,602,677 and 7,241,584) (see Promega product catalog #G7570). Following the addition of the CellTiter-Glo® reagent, the cells were incubated in the dark for 30 minutes. The amount of luminescence was determined for each well using a Wallac Trilux plate reader, which correlates with the number of cells per well. The number of viable cells in the wells that receive only DMSO (0.5%) served as an indication of 0% inhibition, while wells without cells served as 100% inhibition of cell growth. […] This broad activity is consistent with a compound that is a mitotic inhibitor.

[6] = system: HCT-116; assay: CellTiter-Glo proliferation, 72 hours; details: Homo sapiens; Colon, HCT-116, 72 hours
From the text: as §2, §3

CC(C)(C)[C@H](c1nc(-c2cc(F)ccc2F)cn1Cc1ccccc1)N(CC[C@H](N)CF)C(=O)CO [Compound IIa]
GI50 ([1]; HT29, 24 h): > 5 nM | GI50 ([1]; HT29, 48 h): > 5 nM | GI50 ([1]; HT29, 72 h): 0.21 nM | GI50 ([2]; 24 h): > 5 nM | GI50 ([2]; 48 h): > 5 nM | GI50 ([2]; 72 h): 0.45 nM | GI50 ([3]; MV4;11, 24 h): 0.05 nM | GI50 ([3]; MV4;11, 48 h): 0.04 nM | GI50 ([3]; MV4;11, 72 h): 0.04 nM | GI50 ([4]; Colo-205, 24 h): > 5 nM | GI50 ([4]; Colo-205, 48 h): 0.18 nM | GI50 ([4]; Colo-205, 72 h): 0.19 nM | GI50 [5]: 0.3 nM | GI50 [6]: 0.1 nM
